Laboratory results as given in patent publication US10660877B2 (BRISTOL-MYERS SQUIBB COMPANY, priority 2016, dated 2020).
Read-outs that look alike come from different tables or passages of the source.

Experiments:
[1] = target: human TLR7 (Homo sapiens (Human), UniProt Q9NYK1); assay: TLR7 inhibition reporter assay (HEK-Blue cells, SEAP reporter, gardiquimod stimulation); type: cell-based
[2] = target: human TLR8 (Homo sapiens (Human), UniProt Q9NR97); assay: TLR8 inhibition reporter assay (HEK-Blue cells, SEAP reporter, R848 stimulation);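 note: compounds tested from 0.05 nM to 50 µM, 22 h at 37 °C, SEAP measured with HEK-Blue Detection, inhibition relative to agonist plus DMSO versus a known inhibitor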
human TLR8, sequence (Q9NR97 27-1041): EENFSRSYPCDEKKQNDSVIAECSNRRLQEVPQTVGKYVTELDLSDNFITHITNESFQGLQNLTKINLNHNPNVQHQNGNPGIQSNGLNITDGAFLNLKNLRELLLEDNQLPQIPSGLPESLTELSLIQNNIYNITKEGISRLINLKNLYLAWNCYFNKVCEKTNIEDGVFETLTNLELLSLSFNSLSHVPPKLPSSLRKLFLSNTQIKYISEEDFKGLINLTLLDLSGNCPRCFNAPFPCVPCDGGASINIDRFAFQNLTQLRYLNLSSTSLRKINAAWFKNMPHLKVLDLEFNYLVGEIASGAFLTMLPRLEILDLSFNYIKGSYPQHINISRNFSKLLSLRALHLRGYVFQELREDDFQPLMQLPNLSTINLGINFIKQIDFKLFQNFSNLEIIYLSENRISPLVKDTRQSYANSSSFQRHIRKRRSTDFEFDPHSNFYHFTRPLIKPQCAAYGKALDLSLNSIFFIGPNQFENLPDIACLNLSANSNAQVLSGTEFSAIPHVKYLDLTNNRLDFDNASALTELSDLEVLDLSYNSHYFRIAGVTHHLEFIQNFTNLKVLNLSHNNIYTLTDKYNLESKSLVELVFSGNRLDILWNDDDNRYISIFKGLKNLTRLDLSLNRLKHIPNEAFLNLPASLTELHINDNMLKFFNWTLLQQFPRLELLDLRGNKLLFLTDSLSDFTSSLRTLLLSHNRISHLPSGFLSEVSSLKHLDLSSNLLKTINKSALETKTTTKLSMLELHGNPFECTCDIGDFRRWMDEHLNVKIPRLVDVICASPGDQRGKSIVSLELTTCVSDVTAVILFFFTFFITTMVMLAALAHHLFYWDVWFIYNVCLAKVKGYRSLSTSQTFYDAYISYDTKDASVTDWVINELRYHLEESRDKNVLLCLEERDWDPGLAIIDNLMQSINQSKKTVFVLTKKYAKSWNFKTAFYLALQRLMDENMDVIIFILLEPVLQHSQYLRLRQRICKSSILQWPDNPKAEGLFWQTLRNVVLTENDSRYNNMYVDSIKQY

[3] = target: human TLR9 (Homo sapiens (Human), UniProt Q9NR96); assay: TLR9 inhibition reporter assay (HEK-Blue cells, SEAP reporter, ODN2006 stimulation);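 note: compounds tested over 0.05 nM to 50 µM, 22 h incubation, inhibition taken as SEAP signal drop from agonist plus DMSO wells toward a known inhibitor control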
human TLR9, sequence (Q9NR96 26-1032): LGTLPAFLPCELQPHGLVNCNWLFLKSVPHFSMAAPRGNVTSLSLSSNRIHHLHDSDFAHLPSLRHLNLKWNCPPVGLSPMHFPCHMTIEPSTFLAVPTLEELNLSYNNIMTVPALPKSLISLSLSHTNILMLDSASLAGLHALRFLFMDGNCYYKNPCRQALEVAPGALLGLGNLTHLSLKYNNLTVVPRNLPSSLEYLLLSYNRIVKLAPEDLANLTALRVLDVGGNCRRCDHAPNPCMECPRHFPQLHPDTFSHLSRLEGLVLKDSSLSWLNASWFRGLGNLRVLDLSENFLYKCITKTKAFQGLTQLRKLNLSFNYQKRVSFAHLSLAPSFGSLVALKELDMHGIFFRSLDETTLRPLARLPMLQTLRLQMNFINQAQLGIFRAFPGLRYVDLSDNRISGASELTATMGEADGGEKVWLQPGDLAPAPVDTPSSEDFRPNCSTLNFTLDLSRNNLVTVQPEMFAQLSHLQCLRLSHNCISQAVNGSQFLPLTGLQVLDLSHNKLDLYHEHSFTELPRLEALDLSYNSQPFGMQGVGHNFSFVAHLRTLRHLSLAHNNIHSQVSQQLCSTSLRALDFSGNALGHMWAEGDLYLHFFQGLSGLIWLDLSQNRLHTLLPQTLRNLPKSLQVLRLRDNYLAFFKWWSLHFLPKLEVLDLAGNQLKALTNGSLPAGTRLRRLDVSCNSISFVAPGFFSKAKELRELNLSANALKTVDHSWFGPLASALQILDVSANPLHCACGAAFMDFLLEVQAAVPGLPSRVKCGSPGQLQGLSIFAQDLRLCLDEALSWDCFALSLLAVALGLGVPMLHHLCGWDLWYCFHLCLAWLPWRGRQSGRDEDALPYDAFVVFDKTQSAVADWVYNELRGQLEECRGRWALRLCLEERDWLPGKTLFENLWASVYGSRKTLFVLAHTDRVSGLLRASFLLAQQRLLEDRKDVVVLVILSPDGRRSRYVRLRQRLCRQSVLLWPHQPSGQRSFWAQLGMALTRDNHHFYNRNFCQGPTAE

[4] = HEK-Blue cells overexpressing human TLR7, gardiquimod 7.5 μM
[5] = read-out: TLR8 IC50, HEK-Blue cells overexpressing human TLR8, R848 15.9 μM
[6] = read-out: TLR9 IC50, HEK-Blue cells overexpressing human TLR9, ODN2006 5 nM
[7] = TLR8 IC50, HEK-Blue cells overexpressing human TLR8, R848 15.9 μM
[8] = TLR9 IC50, HEK-Blue cells overexpressing human TLR9, ODN2006 5 nM
[9] = HEK-Blue cells, gardiquimod 7.5 μM
[10] = read-out: TLR8 IC50, HEK-Blue cells, R848 15.9 μM
[11] = read-out: TLR9 IC50, HEK-Blue cells, ODN2006 5 nM

human TLR7, sequence (Q9NYK1 27-1049): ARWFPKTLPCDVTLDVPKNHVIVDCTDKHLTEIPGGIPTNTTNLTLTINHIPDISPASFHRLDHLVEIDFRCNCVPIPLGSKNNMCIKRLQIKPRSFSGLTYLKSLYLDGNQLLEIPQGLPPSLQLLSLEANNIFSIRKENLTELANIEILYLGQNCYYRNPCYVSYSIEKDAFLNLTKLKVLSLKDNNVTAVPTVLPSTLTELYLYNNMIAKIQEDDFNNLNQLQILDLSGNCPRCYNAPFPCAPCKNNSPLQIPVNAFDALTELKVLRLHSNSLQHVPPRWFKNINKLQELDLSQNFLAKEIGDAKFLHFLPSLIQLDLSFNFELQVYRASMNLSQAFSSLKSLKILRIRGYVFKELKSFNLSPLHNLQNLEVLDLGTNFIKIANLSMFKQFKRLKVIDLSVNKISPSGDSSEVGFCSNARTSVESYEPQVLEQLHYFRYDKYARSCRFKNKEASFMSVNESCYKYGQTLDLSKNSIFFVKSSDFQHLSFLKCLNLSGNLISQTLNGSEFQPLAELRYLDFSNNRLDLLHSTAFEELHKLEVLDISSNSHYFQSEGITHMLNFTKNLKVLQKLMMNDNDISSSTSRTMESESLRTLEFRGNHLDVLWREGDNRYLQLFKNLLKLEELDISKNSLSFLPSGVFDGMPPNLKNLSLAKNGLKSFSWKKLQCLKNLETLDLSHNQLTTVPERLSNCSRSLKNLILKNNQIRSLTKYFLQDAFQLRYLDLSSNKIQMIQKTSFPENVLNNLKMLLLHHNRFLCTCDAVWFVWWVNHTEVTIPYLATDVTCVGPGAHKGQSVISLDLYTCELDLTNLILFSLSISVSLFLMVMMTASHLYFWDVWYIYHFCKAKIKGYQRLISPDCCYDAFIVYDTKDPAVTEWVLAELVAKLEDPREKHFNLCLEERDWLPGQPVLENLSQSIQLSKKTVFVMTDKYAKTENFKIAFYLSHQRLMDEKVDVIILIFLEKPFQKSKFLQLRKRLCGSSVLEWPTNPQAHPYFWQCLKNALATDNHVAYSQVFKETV

SMILES | IC50 [1, 4] | IC50 [2, 5] | IC50 [3, 6] | IC50 [2, 7] | IC50 [3, 8] | IC50 [1, 9] | IC50 [2, 10] | IC50 [3, 11]
Cc1cc(-c2[nH]c3ccc(C4CCN(CC(=O)N5CC6(COC6)C5)CC4)cc3c2C(C)C)cc(C)n1 [Example 256, 2-(4-(2-(2,6-dimethylpyridin-4-yl)-3-isopropyl-1H-indol-5-yl)piperidin-1-yl)-1-(2-oxa-6-azaspiro[3.3]heptan-6-yl)ethan-1-one] | 4.4 nM | 9.2 nM | 403 nM | – | – | – | – | –
Cc1cc(-c2[nH]c3ccc(C4CCN(CC(=O)N5CCCCC5)CC4)cc3c2C(C)C)cc(C)n1 [Example 241, 2-(4-(2-(2,6-dimethylpyridin-4-yl)-3-isopropyl-1H-indol-5-yl)piperidin-1-yl)-1-(piperidin-1-yl)ethan-1-one] | 6.4 nM | 10.7 nM | 444 nM | – | – | – | – | –
Cc1cc(-c2[nH]c3ccc(C4CCN(C(=O)CN5CCCC5)CC4)cc3c2C(C)C)cc(C)n1 [Example 352, 1-(4-(2-(2,6-dimethylpyridin-4-yl)-3-isopropyl-1H-indol-5-yl)piperidin-1-yl)-2-(pyrrolidin-1-yl)ethan-1-one] | 3.3 nM | 10.4 nM | 365 nM | – | – | – | – | –
Cc1cc(-c2[nH]c3ccc(C4CCNCC4)cc3c2CC2CC2)ccn1 [Example 89, 3-(cyclopropylmethyl)-2-(2-methylpyridin-4-yl)-5-(piperidin-4-yl)-1H-indole] | 13.6 nM | 10.7 nM | 548 nM | – | – | – | – | –
Cc1cc(-c2[nH]c3ccc(C4CCN(C(=O)CN5CCCCC5C)CC4)cc3c2C(C)C)cc(C)n1 (stereo not drawn) [Example 377, 1-(4-(2-(2,6-dimethylpyridin-4-yl)-3-isopropyl-1H-indol-5-yl)piperidin-1-yl)-2-(2-methylpiperidin-1-yl)ethan-1-one] | 4.4 nM | 17.5 nM | 514 nM | – | – | – | – | –
Cc1cc(-c2[nH]c3ccc(C4CCN(C5CCCC5)CC4)cc3c2C(C)C)cc(C)n1 [Example 326, 5-(1-cyclopentylpiperidin-4-yl)-2-(2,6-dimethylpyridin-4-yl)-3-isopropyl-1H-indole] | 16.1 nM | 29.2 nM | 1120 nM | – | – | – | – | –
COCCNCC(=O)N1CCC(c2ccc3[nH]c(-c4cc(C)nc(C)c4)c(C(C)C)c3c2)CC1 [Example 346, 1-(4-(2-(2,6-dimethylpyridin-4-yl)-3-isopropyl-1H-indol-5-yl)piperidin-1-yl)-2-((2-methoxyethyl)amino)ethan-1-one] | 4.3 nM | 16.7 nM | 1110 nM | – | – | – | – | –
Cc1cc(-c2[nH]c3ccc(C4CCN(C(=O)CN(C)C(C)(C)C)CC4)cc3c2C(C)C)cc(C)n1 [Example 359, 2-(tert-butyl (methyl)amino)-1-(4-(2-(2,6-dimethylpyridin-4-yl)-3-isopropyl-1H-indol-5-yl)piperidin-1-yl)ethan-1-one] | 7.1 nM | 11.7 nM | 826 nM | – | – | – | – | –
Cc1cc(-c2[nH]c3ccc(C4CCN(C(=O)C5CCNC5)CC4)cc3c2C(C)C)cc(C)n1 (single isomer, unassigned) [Example 181, (4-(2-(2,6-dimethylpyridin-4-yl)-3-isopropyl-1H-indol-5-yl)piperidin-1-yl)(pyrrolidin-3-yl) methanone] | 2.6 nM | – | – | 21.5 nM | 537 nM | – | – | –
CC(C)c1c(-c2cc(Cl)ncc2C#N)[nH]c2ccc(C3CCNCC3)cc12 [Example 26, 6-chloro-4-(3-isopropyl-5-(piperidin-4-yl)-1H-indol-2-yl)nicotinonitrile] | 199 nM | 481 nM | 6320 nM | – | – | – | – | –
Cc1cc(-c2[nH]c3ccc(C4CCN(CC5COC5)CC4)cc3c2C(C)C)cc(C)n1 [Example 333, 2-(2,6-dimethylpyridin-4-yl)-3-isopropyl-5-(1-(oxetan-3-ylmethyl)piperidin-4-yl)-1H-indole] | 0.8 nM | 1.4 nM | 364 nM | – | – | – | – | –
Cc1cc(-c2[nH]c3ccc(C4CCN(C(=O)C(C)(C)N)CC4)cc3c2C(C)C)cc(C)n1 [Example 194, 2-amino-1-(4-(2-(2,6-dimethylpyridin-4-yl)-3-isopropyl-1H-indol-5-yl)piperidin-1-yl)-2-methylpropan-1-one] | 0.6 nM | 9.3 nM | 213 nM | – | – | – | – | –
CNC(=O)CN1CCC(c2ccc3[nH]c(-c4cc(C5CC5)ncc4F)c(C(C)C)c3c2)CC1 [Example 514, 2-(4-(2-(2-cyclopropyl-5-fluoropyridin-4-yl)-3-isopropyl-1H-indol-5-yl)piperidin-1-yl)-N-methylacetamide] | 60.3 nM | 269 nM | 10900 nM | – | – | – | – | –
Cc1cc(-c2[nH]c3ccc(C4CCN(C5CCS(=O)(=O)CC5)CC4)cc3c2C(C)C)cc(C)n1 [Example 459, 4-(4-(2-(2,6-dimethylpyridin-4-yl)-3-isopropyl-1H-indol-5-yl)piperidin-1-yl)tetrahydro-2H-thiopyran 1,1-dioxide] | 3.7 nM | 3.6 nM | 1220 nM | – | – | – | – | –
Cc1cc(-c2[nH]c3cc(C(F)(F)F)c(C4CCNCC4)cc3c2C(C)C)ccn1 [Example 74, 3-isopropyl-2-(2-methylpyridin-4-yl)-5-(piperidin-4-yl)-6-(trifluoromethyl)-1H-indole] | 13.1 nM | 437 nM | 1160 nM | – | – | – | – | –
Cc1cc(-c2[nH]c3ccc(C4CCN(C(=O)C(=O)N(C)CCN(C)C)CC4)cc3c2C(C)C)cc(C)n1 [Example 858, N-(2-(dimethylamino)ethyl)-2-(4-(2-(2,6-dimethylpyridin-4-yl)-3-isopropyl-1H-indol-5-yl)piperidin-1-yl)-N-methyl-2-oxoacetamide] | – | – | – | – | – | 1.9 nM | 5.7 nM | 519 nM
Cc1cc(-c2[nH]c3ccc(C4CCN(C(=O)Cc5cn(C)cn5)CC4)cc3c2C(C)C)cc(C)n1 [Example 137, 1-(4-(2-(2,6-dimethylpyridin-4-yl)-3-isopropyl-1H-indol-5-yl)piperidin-1-yl)-2-(1-methyl-1H-imidazol-4-yl)ethan-1-one] | 8.2 nM | 39.1 nM | 1780 nM | – | – | – | – | –
Cc1c(-c2[nH]c3ccc(C4CCNCC4)cc3c2C(C)C)ccnc1Cl [Example 35, 2-(2-chloro-3-methylpyridin-4-yl)-3-isopropyl-5-(piperidin-4-yl)-1H-indole] | 26.7 nM | 28.8 nM | 4080 nM | – | – | – | – | –
CNCCN1CCC(c2ccc3[nH]c(-c4cc(Cl)ncc4OC)c(C)c3c2)CC1 [Example 757, 2-(4-(2-(2-chloro-5-methoxypyridin-4-yl)-3-methyl-1H-indol-5-yl)piperidin-1-yl)-N-methylethan-1-amine] | 6670 nM | 93.2 nM | 1300 nM | – | – | – | – | –
Cc1cc(-c2[nH]c3ccc(C4CCN(CC5CCOC5)CC4)cc3c2C(C)C)cc(C)n1 (stereo not drawn) [Example 469, 2-(2,6-dimethylpyridin-4-yl)-3-isopropyl-5-(1-((tetrahydrofuran-3-yl)methyl)piperidin-4-yl)-1H-indole] | 2.1 nM | 2.9 nM | 280 nM | – | – | – | – | –
Cc1cc(-c2[nH]c3ccc(C4CCN(C(=O)CC(F)(F)F)CC4)cc3c2C(C)C)ccn1 [Example 600, 3,3,3-trifluoro-1-(4-(3-isopropyl-2-(2-methylpyridin-4-yl)-1H-indol-5-yl)piperidin-1-yl)propan-1-one] | 120 nM | 269 nM | > 50000 nM | – | – | – | – | –
Cc1cc(-c2[nH]c3ccc(C4CCN(C(=O)CN(CCO)Cc5ccc(F)cc5)CC4)cc3c2C(C)C)cc(C)n1 [Example 407, 1-(4-(2-(2,6-dimethylpyridin-4-yl)-3-isopropyl-1H-indol-5-yl)piperidin-1-yl)-2-((4-fluorobenzyl)(2-hydroxyethyl)amino)ethan-1-one] | 7 nM | 71 nM | 495 nM | – | – | – | – | –
Cc1cc(-c2[nH]c3ccc(C4CCN(CC(=O)N5CCC(F)(F)CC5)CC4)cc3c2C(C)C)cc(C)n1 [Example 257, 1-(4,4-difluoropiperidin-1-yl)-2-(4-(2-(2,6-dimethylpyridin-4-yl)-3-isopropyl-1H-indol-5-yl)piperidin-1-yl)ethan-1-one] | 9.8 nM | 13.8 nM | 607 nM | – | – | – | – | –
Cc1cc(-c2[nH]c3ccc(C4CCN(CC5CCN(C(C)C)CC5)CC4)c(F)c3c2C(C)C)ccn1 [Example 874, 4-fluoro-3-isopropyl-5-(1-((1-isopropylpiperidin-4-yl)methyl)piperidin-4-yl)-2-(2-methylpyridin-4-yl)-1H-indole] | – | – | – | – | – | 15.4 nM | 33.6 nM | 445 nM
CCc1c(-c2ccnc(C)c2)[nH]c2ccc(C3CCN(CC(O)CN(C)C(C)C)CC3)cc12 (stereo not drawn) [Example 877, 1-(4-(3-ethyl-2-(2-methylpyridin-4-yl)-1H-indol-5-yl)piperidin-1-yl)-3-(isopropyl(methyl)amino)propan-2-ol] | – | – | – | – | – | 30.6 nM | 2.9 nM | 16 nM
CCc1c(-c2ccnc(N)c2)[nH]c2ccc(C3CCNCC3)cc12 [Example 69, 4-(3-ethyl-5-(piperidin-4-yl)-1H-indol-2-yl) pyridin-2-amine] | 277 nM | 181 nM | 114 nM | – | – | – | – | –
Cc1cc(-c2[nH]c3ccc(C4CCNCC4O)cc3c2C(C)C)cc(C)n1 (single isomer, unassigned) [Example 488B, 4-(2-(2,6-dimethylpyridin-4-yl)-3-isopropyl-1H-indol-5-yl)piperidin-3-ol] | 2.4 nM | – | – | 33.1 nM | 308 nM | – | – | –
CC(C)c1c(-c2cc(F)ncc2Cl)[nH]c2ccc(C3CCNCC3)cc12 [Example 18, 2-(5-chloro-2-fluoropyridin-4-yl)-3-isopropyl-5-(piperidin-4-yl)-1H-indole] | 177 nM | 47 nM | 6270 nM | – | – | – | – | –
